Measured values from patent publication US20240299488A1, “METHODS AND COMPOSITIONS FOR IMPROVING VISUAL FUNCTION IN OCULAR DISEASES AND DISORDERS” (ONL Therapeutics, Inc., priority 2021, published 2024).
Where “and” joins values, the source holds several entries; their conditions need not be identical. Equal entries are not always repeated. Ends that are not written are not given here.

What was measured:
Type in all cases: in vivo, human
[1] = tested on: IL1RA; assay: Example 2: change in cytokine level in ocular fluid samples, IL1RA
Method: (§1) The primary objective was to determine the Maximum Tolerated Dose (MTD) of a peptide an amino acid sequence […] and the structure of Formula III (ONL1204) and select doses for further clinical studies. During the study, ocular fluid samples were also collected at the time of study drug injection and at the time of vitrectomy. These samples were used for pharmacokinetic and pharmacodynamic analyses.
(§2) Patients were enrolled in ascending dose groups. […] Safety visits were conducted one day post-injection and as deemed necessary by the examining Investigator (at least 1 visit every 3 days) until Visit 3. At Visit 3 (3+ days post-injection, in accordance with standard of care) patients underwent surgical repair of their retinal detachment with vitrectomy (with or without scleral buckling) and gas or oil tamponade. At the time of surgery, an undiluted vitreous sample was collected for pharmacokinetic and pharmacodynamics analyses, and an aqueous sample was collected for pharmacodynamic analysis. Additional safety visits were targeted for and generally conducted one day post-surgery, 7 days (±3 days) post-surgery, 14 (+4 days) days post-surgery, and Weeks 6, 9, 12 (±7 days each), and Week 24 (+14 days; study exit).

[2] = tested on: patients with retinal detachment; assay: Example 2: BCVA in retinal detachment patients, intravitreal injection followed by surgical repair; design: key to BCVA Snellen study eye: (HM) = hand motion; (CF) = counting fingers; conditions: for summary statistics for all patients, mean: doses 25 to 200 ug, baseline mean 1.86
Method: as §1, §2
Therefore, a volume of 0.05 or 0.1 mL was injected into the study eye. Patient participation was approximately 24 weeks (6 months): a single injection treatment and 24 weeks of follow-up.

[3] = tested on: MCP1; assay: Example 2: change in cytokine level in ocular fluid samples, MCP1
Method: as §1, §2

[4] = tested on: patients having macular degeneration characterized by geographic atrophy (GA); assay: Example I: BCVA in GA patients after single intravitreal injection
[5] = tested on: patients with retinal detachment; assay: Example 2: safety, adverse event reporting
Method: as §1, §2
The following doses were evaluated: 25 microgram (ug) and 50 ug provided in vials with concentrations of 0.5 mg/mL and/or 2 mg/mL of Formula III. Therefore, a volume of 0.05 or 0.1 mL was injected into the study eye. Patient participation was approximately 24 weeks (6 months): a single injection treatment and 24 weeks of follow-up.
Planned determinations of dose limiting toxicity included consideration of the following events: • 1.

[6] = tested on: IL18; assay: Example 2: change in cytokine level in ocular fluid samples, IL18
Method: as §1, §2

[7] = tested on: ICAM1; assay: Example 2: change in cytokine level in ocular fluid samples, ICAM1
Method: as §1, §2

[8] = dose 25 ug (Table 1), individual patients
[9] = dose 50 ug (Table 1), individual patients
[10] = dose 100 ug (Table 1), individual patients
[11] = dose 200 ug (Table 1), individual patient

HHIYLGAVNYIY-NH2 [ONL1204]
Percent Change (%) from time of administering ONL1204 to surgery, IL1RA [1, 8]: −51.0% and −57.4% and −99.3% | Percent Change (%) from time of administering ONL1204 to surgery, IL1RA [1, 9]: −60.0% and −94.4% and −88.3% | Percent Change (%) from time of administering ONL1204 to surgery, IL1RA [1, 10]: 8.5% and −46.1% and −65.2% | Percent Change (%) from time of administering ONL1204 to surgery, IL1RA [1, 11]: −26.3% | summary statistics for all patients, mean ([2]; Week 6, n 14): 0.65 | summary statistics for all patients, mean ([2]; Week 9, n 13): 0.78 | summary statistics for all patients, mean ([2]; Week 24, n 13): 0.56 | visual outcomes, all patients receiving ONL1204 ([2]; also with greater than 10 days of central vision loss, 3 to 7 days from administration to surgery, range of detachment heights and extents): improved visual outcomes were observed for all patients receiving ONL1204 | visual outcomes (e.g., visual acuity) ([2]; retinal detachment patients, doses comprising 25 ug and 50 ug, with surgery): showed an improvement in visual outcomes | BCVA Snellen study eye ([2]; week 9, dose 100 ug, individual patients): HM | Percent Change (%) from time of administering ONL1204 to surgery, MCP1 [3, 8]: −41.4% and −6.02% and −35.9% | Percent Change (%) from time of administering ONL1204 to surgery, MCP1 [3, 9]: −3.12% and −48.4% and 11.6% | Percent Change (%) from time of administering ONL1204 to surgery, MCP1 [3, 10]: −9.5% and 78.5% and 500% | Percent Change (%) from time of administering ONL1204 to surgery, MCP1 [3, 11]: −2.4% | change in cytokine levels (MCP 1, ICAM, IL IRA, and IL 18) from time of ONL1204 administration to surgery ([3]; mean over patients of Table 7): mean decrease | change in best corrected visual acuity (BCVA) ([4]; compared to baseline BCVA, FIG. 1, 1 to 24 weeks post treatment): improvement in visual acuity was generally observed | visual outcomes (e.g., visual acuity) ([4]; doses comprising 25 ug and 50 ug, single intravitreal injection): showed an improvement in visual outcomes | patients who experienced adverse events ([5]; 4 patients receiving 25 ug and 4 patients receiving 50 ug): 7 out of 8 | severity and relatedness of adverse events ([5]; 8 patients, 25 ug and 50 ug): Most were mild, and study procedure or surgery related | total number of adverse events ([5]; 8 patients, 25 ug and 50 ug): 20 | Percent Change (%) from time of administering ONL1204 to surgery, IL18 [6, 8]: −60.5% and −22.5% and −50.8% | Percent Change (%) from time of administering ONL1204 to surgery, IL18 [6, 9]: 0% (2×) and −100% | Percent Change (%) from time of administering ONL1204 to surgery, IL18 [6, 10]: −33.7% and 0% and 66.0% | Percent Change (%) from time of administering ONL1204 to surgery, IL18 [6, 11]: 0% | Percent Change (%) from time of administering ONL1204 to surgery, ICAM1 [7, 8]: −82.4% and −42.7% and −86.2% | Percent Change (%) from time of administering ONL1204 to surgery, ICAM1 [7, 9]: 64.0% and −100% and 0% | Percent Change (%) from time of administering ONL1204 to surgery, ICAM1 [7, 10]: −43.9% and 24.9% and 22.7% | Percent Change (%) from time of administering ONL1204 to surgery, ICAM1 [7, 11]: 0%
